Source: the NIST ThermoML archive (doi:10.1021/je901043q)

Experiment: xn = mol fraction of the nth substance listed
Settings: 101 kPa, Liquid

CCCCn1cc[n+](C)c1.N#C[S-] [1-butyl-3-methylimidazolium thiocyanate] + CCCCCCCO
Settings | mass density [kg/m3] | viscosity [mPa·s]
298.15 K, x1 = 0.0806 | 845.64 | 7.319
298.15 K, x1 = 0.14 | 864.24 | 8.422
298.15 K, x1 = 0.2203 | 888.14 | 10.16
298.15 K, x1 = 0.3006 | 910.91 | 12.31
298.15 K, x1 = 0.3997 | 937.73 | 15.5
298.15 K, x1 = 0.4903 | 960.98 | 18.92
298.15 K, x1 = 0.5703 | 980.45 | 22.22
298.15 K, x1 = 0.6949 | 1008.83 | 28.65
298.15 K, x1 = 0.7981 | 1031.04 | 34.6
298.15 K, x1 = 0.8852 | 1048.62 | 39.81
298.15 K, x1 = 0.9793 | 1066.13 | 47.21
298.15 K, x1 = 1 | 1069.79 | 51.74
308.15 K, x1 = 0.0806 | 838.75 | 5.395
308.15 K, x1 = 0.14 | 857.45 | 6.213
308.15 K, x1 = 0.2203 | 881.49 | 7.479
308.15 K, x1 = 0.3006 | 904.36 | 9.061
308.15 K, x1 = 0.3997 | 931.34 | 11.31
308.15 K, x1 = 0.4903 | 954.7 | 13.59
308.15 K, x1 = 0.5703 | 974.26 | 15.73
308.15 K, x1 = 0.6949 | 1002.79 | 19.86
308.15 K, x1 = 0.7981 | 1025.06 | 23.67
308.15 K, x1 = 0.8852 | 1042.69 | 26.77
308.15 K, x1 = 0.9793 | 1060.22 | 31.2
308.15 K, x1 = 1 | 1063.89 | 34.87
318.15 K, x1 = 0.0806 | 831.82 | 4.085
318.15 K, x1 = 0.14 | 850.63 | 4.725
318.15 K, x1 = 0.2203 | 874.82 | 5.654
318.15 K, x1 = 0.3006 | 897.84 | 6.884
318.15 K, x1 = 0.3997 | 924.97 | 8.55
318.15 K, x1 = 0.4903 | 948.46 | 10.19
318.15 K, x1 = 0.5703 | 968.12 | 11.67
318.15 K, x1 = 0.6949 | 996.76 | 14.49
318.15 K, x1 = 0.7981 | 1019.11 | 17.02
318.15 K, x1 = 0.8852 | 1036.79 | 19.03
318.15 K, x1 = 0.9793 | 1054.36 | 21.9
318.15 K, x1 = 1 | 1058.02 | 24.19
328.15 K, x1 = 0.0806 | 824.81 | 3.166
328.15 K, x1 = 0.14 | 843.79 | 3.685
328.15 K, x1 = 0.2203 | 868.14 | 4.369
328.15 K, x1 = 0.3006 | 891.32 | 5.306
328.15 K, x1 = 0.3997 | 918.62 | 6.634
328.15 K, x1 = 0.4903 | 942.26 | 7.875
328.15 K, x1 = 0.5703 | 962.02 | 8.926
328.15 K, x1 = 0.6949 | 990.79 | 11.02
328.15 K, x1 = 0.7981 | 1013.22 | 12.79
328.15 K, x1 = 0.8852 | 1030.94 | 14.2
328.15 K, x1 = 0.9793 | 1048.56 | 16.16
328.15 K, x1 = 1 | 1052.19 | 16.7
338.15 K, x1 = 0.0806 | 817.69 | 2.508
338.15 K, x1 = 0.14 | 836.85 | 2.935
338.15 K, x1 = 0.2203 | 861.43 | 3.47
338.15 K, x1 = 0.3006 | 884.79 | 4.186
338.15 K, x1 = 0.3997 | 912.28 | 5.262
338.15 K, x1 = 0.4903 | 936.05 | 6.24
338.15 K, x1 = 0.5703 | 955.92 | 7.057
338.15 K, x1 = 0.6949 | 984.85 | 8.62
338.15 K, x1 = 0.7981 | 1007.36 | 9.943
338.15 K, x1 = 0.8852 | 1025.11 | 10.97
338.15 K, x1 = 0.9793 | 1042.8 | 12.38
338.15 K, x1 = 1 | 1046.43 | 12.73
348.15 K, x1 = 0.0806 | 810.46 | 2.022
348.15 K, x1 = 0.14 | 829.85 | 2.383
348.15 K, x1 = 0.2203 | 854.69 | 2.837
348.15 K, x1 = 0.3006 | 878.24 | 3.403
348.15 K, x1 = 0.3997 | 905.95 | 4.222
348.15 K, x1 = 0.4903 | 929.89 | 5.029
348.15 K, x1 = 0.5703 | 949.88 | 5.663
348.15 K, x1 = 0.6949 | 978.95 | 6.884
348.15 K, x1 = 0.7981 | 1001.53 | 7.93
348.15 K, x1 = 0.8852 | 1019.34 | 8.707
348.15 K, x1 = 0.9793 | 1037.06 | 9.802
348.15 K, x1 = 1 | 1040.7 | 9.98
